For 15 molecules, IC50 results are on record in patent US11548899B2, “Fused 1,4-oxazepines and related analogs as BET bromodomain inhibitors” (THE REGENTS OF THE UNIVERSITY OF MICHIGAN, priority 2016, dated 2023).

Usually IC50 stands for the midpoint of a concentration-inhibition curve.

This assay concerns the target T1, recombinant BRD4 BD1 (Homo sapiens, UniProt O60885).
T1 construct: recombinant BRD4 BD1 and BRD4 BD2 proteins
The experiment in a line: Competitive fluorescence-polarization (FP) binding assay, BRD4 BD1. As to conditions: FP competitive binding; protein 10 nM, probe 1.5 nM; read-out: IC50 (nM) BRD4 BD1.
For the molecule `Cc1nnc2n1-c1scc(Cc3ccccc3)c1COC2` [Cpd. No. 30, 3-benzyl-9-methyl-4H,6H-thieno[2,3-e][1,2,4]triazolo[3,4-c][1,4]oxazepine], the 50% inhibitory concentration (IC50) was found to be 1390 nM. As to `Cc1nnc2n1-c1ccc(-c3cnn(CC(N)=O)c3)c(Cc3ccccc3)c1COC2` [Cpd. No. 76, 2-(4-(7-benzyl-1-methyl-4,6-dihydrobenzo[e][1,2,4]triazolo[3,4-c][1,4]oxazepin-8-yl)-1H-pyrazol-1-yl)acetamide], the IC50 was determined as 937 nM. Then `Cc1nnc2n1-c1ccc(C3CCOCC3)c(Cc3ccccc3)c1COC2` [Cpd. No. 79, 7-benzyl-1-methyl-8-(tetrahydro-2H-pyran-4-yl)-4,6-dihydrobenzo[e][1,2,4]triazolo[3,4-c][1,4]oxazepine], with 18100 nM; and `Cc1sc2c(c1-c1ccccc1)COCc1nnc(C)n1-2` [Cpd. No. 3, 2,9-dimethyl-3-phenyl-4H,6H-thieno[2,3-e][1,2,4]triazolo[3,4-c][1,4]oxazepine], with 13300 nM; and `Cc1nnc2n1-c1scc(Br)c1CO[C@H]2C` [Cpd. No. 117, (S)-3-bromo-6,9-dimethyl-4,6-dihydrothieno[2,3-e][1,2,4]triazolo[3,4-c][1,4]oxazepine], with 118 nM. Regarding `Cc1nnc2n1-c1sc(CN3CCOCC3)c(Cc3ccccc3)c1COC2` [Cpd. No. 90, 3-benzyl-9-methyl-2-(morpholinomethyl)-4H,6H-thieno[2,3-][1,2,4]triazolo[3,4-c][1,4]oxazepine], the IC50 worked out at 6510 nM. As for `Cc1sc2c(c1Cc1cc(F)cc(F)c1)COCc1nnc(C)n1-2` [Cpd. No. 104, 3-(3,5-difluorobenzyl)-2,9-dimethyl-4H,6H-thieno[2,3-e][1,2,4]triazolo[3,4-c][1,4]oxazepine], the half-inhibitory concentration (IC50) worked out at 313 nM. As to `Cc1sc2c(c1C1=CCc3ccccc31)COCc1nnc(C)n1-2` [Cpd. No. 53, 3-(1H-inden-3-yl)-2,9-dimethyl-4,6-dihydrothieno[2,3-e][1,2,4]triazolo[3,4-c][1,4]oxazepine], the 50% inhibitory concentration (IC50) was determined as 244 nM. With `Cc1nnc2n1-c1sc(C3CCOCC3)c(Cc3ccccc3)c1COC2` [Cpd. No. 97, 3-benzyl-9-methyl-2-(tetrahydro-2H-pyran-4-yl)-4H,6H-thieno[2,3-e][1,2,4]triazolo[3,4-c][1,4]oxazepine], the half-inhibitory concentration (IC50) came to 6710 nM. For `Cc1nnc2n1-c1ccc(C3=CCOCC3)c(Cc3ccccc3)c1COC2` [Cpd. No. 77, 7-benzyl-8-(3,6-dihydro-2H-pyran-4-yl)-1-methyl-4,6-dihydrobenzo[e][1,2,4]triazolo[3,4-c][1,4]oxazepine], the IC50 came out at 13200 nM. For `Cc1sc2c(c1Br)COCc1nnc(C)n1-2` [Cpd. No. 2, 3-bromo-2,9-dimethyl-4H,6H-thieno[2,3-e][1,2,4]triazolo[3,4-c][1,4]oxazepine], the 50% inhibitory concentration (IC50) is 23200 nM.

On to `C=C(C)c1sc2c(c1Cc1ccccc1)COCc1nnc(C)n1-2` [Cpd. No. 94, 3-benzyl-9-methyl-2-(prop-1-en-2-yl)-4H,6H-thieno[2,3-e][1,2,4]triazolo[3,4-c][1,4]oxazepine], for which the IC50 is 1050 nM.

For `Cc1sc2c(c1C1=CCCCc3ccccc31)COCc1nnc(C)n1-2` [Cpd. No. 56, 3-(6,7-dihydro-5H-benzo[7]annulen-9-yl)-2,9-dimethyl-4,6-dihydrothieno[2,3-e][1,2,4]triazolo[3,4-c][1,4]oxazepine], the IC50 was 134 nM. For `Cc1sc2c(c1Cc1ccc(F)c(F)c1)COCc1nnc(C)n1-2` [Cpd. No. 105, 3-(3,4-difluorobenzyl)-2,9-dimethyl-4H,6H-thieno[2,3-e][1,2,4]triazolo[3,4-c][1,4]oxazepine], the IC50 stood at 279 nM. Then `Cc1sc2c(c1C1=CCCc3cc(F)ccc31)COCc1nnc(C)n1-2` [Cpd. No. 57, 3-(6-fluoro-3,4-dihydronaphthalen-1-yl)-2,9-dimethyl-4,6-dihydrothieno[2,3-e][1,2,4]triazolo[3,4-c][1,4]oxazepine], with 198 nM.
